This data set relates to HEp-2 cells. As to the kind of experiment: HEp-2 cell viability (Propidium Iodine cytofluorimetry). In kind it is cell-based, human. As for the experimental part:
The investigation aimed at evaluating the difference in susceptibility to ST 722 of planktonic and sessile Helicobacter cells, using in the latter case an "in vitro" experimental model, which closely resembled the clinical condition occurring "in vivo" in type-B gastritis. […] Additionally, the viability of HEp-2 cells (either infected or not) was evaluated following "in vitro" ST 722 treatment. The degree of cytotoxicity was assessed by cytofiuorimetric analysis of Propidium Iodine-stained HEp-2 cells. […]
The antibacterial and cytotoxic activity of ST 722 against Helicobacter and HEp-2 cells, respectively, was evaluated by using 3 different ST 722 concentrations, namely 0.1, 1.56 (i.e. the MIC value vs. H. pylori NCTC 11637) and 4 mcg/ml. […]
Three and twenty-four hours following ST 722 addition, the cells were trypsinized and harvested by centrifugation at 800 g, The cell pellets were then resuspended in 500 μl PBS and additioned with 6 μl of a 1 mcg/ml Propidium Iodine stock solution in PBS, The same procedure was followed for the control, i.e. HEp-2 cells not infected with H. pylori. The cell suspensions were finally analyzed by means of a FACScan cytofluorimeter.

From patent publication US5498632A, “Esters of acyl carnitines with long-chain aliphatic alcohols and pharmaceutical compositions containing same having antibacterial activity” (Sigma-Tau Industrie Farmaceutiche Riunite S.p.A., priority 1992, dated 1996) come the findings set out here.

In the case of `CCCCCCCCCCCOC(=O)CC(C[N+](C)(C)C)OC(=O)CC(C)C` [ST 722, Isovaleryl-L-Carnitine Undecyl Ester Chloride], the “cytotoxicity versus HEp-2 cells” value reads like this: (4 mcg/ml (data not shown)) “unable to induce detectable cytotoxicity”; (Propidium Iodine staining) “devoid of any cytotoxicity”.
